Consider twelve compounds from patent US9920060B2, “Pyrazolo[3,4-d]pyrimidine compound or salt thereof” (TAIHO PHARMACEUTICAL CO., LTD., priority 2015, dated 2018).

Experiment [1] addresses purified recombinant human HER2 protein (Homo sapiens (Human), UniProt P04626). Kind of experiment: Inhibitory effect on HER2-phosphorylating activity (in vitro). In kind it is biochemical. The settings on record: ATP 6 uM, substrate peptide 0.5 uM, 25° C. for 40 minutes. As to the method:
Next, the HER2 protein, the substrate peptide (final concentration: 0.5 uM), manganese chloride (final concentration: 10 mM), ATP (final concentration: 6 uM), and the solution of the compound of the present invention in DMSO (final concentration of DMSO: 5%) were added into a buffer solution for kinase reaction (15 mM Tris (pH 7.5), 2 mM dithiothreitol, and 0.01% Tween 20), and the mixture was incubated at 25° C. for 40 minutes for kinase reaction. The reaction was terminated by adding EDTA (final concentration: 30 mM) thereto. Finally, the unphosphorylated substrate peptide (S) and the phosphorylated peptide (P) were separated and detected by microcapillary electrophoresis using LabChip® EZ Reader II (PerkinElmer Inc.).

For a further experiment, the system named is A431 cells. Kind of experiment: Cytostatic activity against EGFR-expressing cell line A431 (CellTiter-Glo). The conditions noted are these: EGFR-overexpressing human epithelioid cancer cell line, 3-day culture; read-out: A431 cell growth inhibitory activity IC50 value. In kind it is cell-based. From the text: HER2-overexpressing human stomach cancer cell line NCI-N87 cells were suspended in RPMI1640 medium (manufactured by Life Technologies Corp.) containing 10% fetal bovine serum. Meanwhile, EGFR-overexpressing highly activated human epithelioid cancer cell line A431 cells were suspended in DMEM, high glucose medium (manufactured by Life Technologies Corp.) containing 10% fetal bovine serum. Subsequently, each cell suspension was inoculated to each well of a 384-well flat-bottom microplate and cultured at 37° C. for 1 day in an incubator containing 5% carbon dioxide. The compound of the present invention or Comparative Example compound 1 was dissolved in DMSO, and the test compound was diluted into a concentration of 500 times the final concentration using DMSO. The solution of the test compound in DMSO was diluted with the medium used in the suspension of each cell line, and this solution was added at a final concentration of DMSO of 0.2% to each well of the cell culture plate, followed by further culture at 37° C. for 3 days in an incubator containing 5% carbon dioxide.
Rate of growth inhibition (%)=(C−T)/(C)×100 T: Luminescence intensity of a well supplemented with the test compound C: Luminescence intensity of a well not supplemented with the test compound

Sequence of purified recombinant human HER2 protein (P04626 23-1255): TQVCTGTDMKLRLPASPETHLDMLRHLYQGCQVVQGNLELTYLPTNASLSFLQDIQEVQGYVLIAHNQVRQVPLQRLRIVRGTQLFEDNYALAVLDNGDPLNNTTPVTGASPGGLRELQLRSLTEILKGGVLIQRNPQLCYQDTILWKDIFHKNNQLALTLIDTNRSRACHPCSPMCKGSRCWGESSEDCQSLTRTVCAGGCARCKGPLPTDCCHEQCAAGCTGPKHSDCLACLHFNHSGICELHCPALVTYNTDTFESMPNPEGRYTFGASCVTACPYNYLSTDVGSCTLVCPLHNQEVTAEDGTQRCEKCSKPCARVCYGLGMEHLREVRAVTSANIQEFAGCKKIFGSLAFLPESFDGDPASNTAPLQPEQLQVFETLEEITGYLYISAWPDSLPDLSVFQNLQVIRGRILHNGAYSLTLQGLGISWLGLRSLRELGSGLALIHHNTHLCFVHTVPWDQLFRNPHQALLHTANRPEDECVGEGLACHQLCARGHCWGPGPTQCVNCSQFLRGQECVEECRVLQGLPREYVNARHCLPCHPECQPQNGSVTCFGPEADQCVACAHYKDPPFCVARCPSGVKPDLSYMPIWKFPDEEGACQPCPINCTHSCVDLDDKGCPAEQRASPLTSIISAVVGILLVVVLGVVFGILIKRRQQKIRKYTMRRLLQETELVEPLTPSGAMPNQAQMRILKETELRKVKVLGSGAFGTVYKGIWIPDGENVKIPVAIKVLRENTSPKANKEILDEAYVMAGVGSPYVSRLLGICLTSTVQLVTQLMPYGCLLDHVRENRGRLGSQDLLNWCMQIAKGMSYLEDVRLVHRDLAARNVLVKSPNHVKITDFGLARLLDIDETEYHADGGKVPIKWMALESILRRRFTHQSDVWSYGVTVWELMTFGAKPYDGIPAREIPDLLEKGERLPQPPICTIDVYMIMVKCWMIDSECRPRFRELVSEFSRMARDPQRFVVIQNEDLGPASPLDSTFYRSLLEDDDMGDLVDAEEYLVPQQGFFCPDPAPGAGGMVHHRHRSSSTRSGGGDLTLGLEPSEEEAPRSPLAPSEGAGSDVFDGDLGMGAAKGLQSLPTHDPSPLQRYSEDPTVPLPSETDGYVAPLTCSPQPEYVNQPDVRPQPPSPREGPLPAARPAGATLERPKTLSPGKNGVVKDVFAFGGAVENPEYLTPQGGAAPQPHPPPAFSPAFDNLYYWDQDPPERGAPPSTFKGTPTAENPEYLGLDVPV

Usually IC50 stands for the concentration that gives 50% inhibition. With `C=CC(=O)N1CCC[C@@H](n2nc(C(=O)Nc3ccc(CC(=O)N(C)C)c4ccccc34)c3c(N)ncnc32)C1` [Example 5, (R)-1-(1-acryloylpiperidin-3-yl)-4-amino-N-(4-(2-(dimethylamino)-2-oxoethyl)naphthalen-1-yl)-1H-pyrazolo[3,4-d]pyrimidine-3-carboxamide], in experiment [1], the IC50 is 0.011 µM. On the same count and under the same terms, the figure for `C=CC(=O)N1CCC[C@@H](n2nc(C(=O)Nc3ccc(CC(=O)N(C)C)c(C)c3C)c3c(N)ncnc32)C1` [Example 13, (R)-1-(1-acryloylpiperidin-3-yl)-4-amino-N-(4-(2-(dimethylamino)-2-oxoethyl)-2,3-dimethylphenyl)-1H-pyrazolo[3,4-d]pyrimidine-3-carboxamide] is 0.013 µM.

In the case of `C=CC(=O)N1CCC[C@@H](n2nc(C(=O)Nc3ccc(OC(=O)N(C)C)cc3)c3c(N)ncnc32)C1` [Example 21, (R)-4-(1-(1-acryloylpiperidin-3-yl)-4-amino-1H-pyrazolo[3,4-d]pyrimidine-3-carboxamido)phenyldimethyl carbamate], in experiment [1], the IC50 came out at 0.026 µM.

As to `C=CC(=O)N1CCC[C@@H](n2nc(C(=O)Nc3ccc(CC(=O)N(C)C)cc3F)c3c(N)ncnc32)C1` [Example 25, (R)-1-(1-acryloylpiperidin-3-yl)-4-amino-N-(4-(2-(dimethylamino)-2-oxoethyl)-2-fluorophenyl)-1H-pyrazolo[3,4-d]pyrimidine-3-carboxamide], the IC50 in experiment [1] turned out to be 0.021 µM. As for `C=CC(=O)N1CCC[C@@H](n2nc(C(=O)Nc3cc(C)c(CC(=O)N(C)C)cc3C)c3c(N)ncnc32)C1` [Example 39, (R)-1-(1-acryloylpiperidin-3-yl)-4-amino-N-(4-(2-(dimethylamino)-2-oxoethyl)-2,5-dimethylphenyl)-1H-pyrazolo[3,4-d]pyrimidine-3-carboxamide], the IC50 in experiment [1] was 0.022 µM. Take `C=CC(=O)N1CCC[C@@H](n2nc(C(=O)Nc3ccc(CC(=O)N4CCCC4)cc3C)c3c(N)ncnc32)C1` [Example 71, (R)-1-(1-acryloylpiperidin-3-yl)-4-amino-N-(2-methyl-4-(2-oxo-2-(pyrrolidin-1-yl)ethyl)phenyl)-1H-pyrazolo[3,4-d]pyrimidine-3-carboxamide]: the IC50 in experiment [1] turned out to be 0.011 µM. With `C=CC(=O)N1CCC[C@@H](n2nc(C(=O)Nc3ccc(CC(=O)N4CC(O)C4)cc3C)c3c(N)ncnc32)C1` [Example 73, (R)-1-(1-acryloylpiperidin-3-yl)-4-amino-N-(4-(2-(3-hydroxyazetidin-1-yl)-2-oxoethyl)-2-methylphenyl)-1H-pyrazolo[3,4-d]pyrimidine-3-carboxamide], the IC50 in experiment [1] was determined as 0.074 µM.

As for `C=CC(=O)N1CCC[C@@H](n2nc(C(=O)Nc3ccc(NC(=O)N(C)C)cc3C)c3c(N)ncnc32)C1` [Example 74, (R)-1-(1-acryloylpiperidin-3-yl)-4-amino-N-(4-(3,3-dimethylureido)-2-methylphenyl)-1H-pyrazolo[3,4-d]pyrimidine-3-carboxamide], the IC50 in experiment [1] worked out at 0.017 µM. For the compound `C=CC(=O)N1CCC[C@@H](n2nc(C(=O)Nc3ccc(NC(=O)N4CCCC4)cc3C)c3c(N)ncnc32)C1` [Example 75, (R)-1-(1-acryloylpiperidin-3-yl)-4-amino-N-(2-methyl-4-(pyrrolidine-1-carboxamido)phenyl)-1H-pyrazolo[3,4-d]pyrimidine-3-carboxamide], the IC50 in experiment [1] worked out at 0.016 µM. `C=CC(=O)N1CC(F)C[C@@H](n2nc(C(=O)Nc3ccc(CC(=O)N(C)C)cc3Cl)c3c(N)ncnc32)C1` (stereo partly drawn) [Example 76, 1-((3R)-1-acryloyl-5-fluoropiperidin-3-yl)-4-amino-N-(2-chloro-4-(2-(dimethylamino)-2-oxoethyl)phenyl)-1H-pyrazolo[3,4-d]pyrimidine-3-carboxamide]: the IC50 in experiment [1] stood at 0.005 µM. Still for that read-out and setting: the figure for `C=CC(=O)N1CC(F)C[C@@H](n2nc(C(=O)Nc3ccc(CC(=O)N(C)C)c(C)c3C)c3c(N)ncnc32)C1` (stereo partly drawn) [Example 77, 1-((3R)-1-acryloyl-5-fluoropiperidin-3-yl)-4-amino-N-(4-(2-(dimethylamino)-2-oxoethyl)-2,3-dimethylphenyl)-1H-pyrazolo[3,4-d]pyrimidine-3-carboxamide] is 0.013 µM. Consider “(R,E)-4-(4-amino-1-(1-(4-dimethylamino)but-2-enoyl)piperidin-3-yl)-1H-pyrazolo[3,4-d]pyrimidine-3-carboxamido)naphthalen-1-yl dimethylcarbamate [Example 66]”, for which the IC50 in the experiment with A431 cells was 6.04 µM.
